Experimental data reported in ChEMBL document CHEMBL1156987, “Novel azalides derived from 16-membered macrolides. III. Azalides modified at the C-15 and 4'' positions: Improved antibacterial activities” (Bioorg Med Chem, 2010).
In brackets after ≈: the same amount, converted by molar mass.

Legend:
Assay type in all cases: functional
Staphylococcus aureus = test: Antibacterial activity against Staphylococcus aureus 209P JC1 after 20 hrs by agar dilution method; conditions: 209P JC1, 20 h
Streptococcus pneumoniae [1] = test: Antibacterial activity against Streptococcus pneumoniae DP1 type 1 after 20 hrs by agar dilution method; conditions: DP1 type1, 20 h
Streptococcus pneumoniae [2] = test: Antibacterial activity against Streptococcus pneumoniae 5 expressing constitutive ermB methylase after 20 hrs by agar dilution method; conditions: Streptococcus pneumoniae, 5, 20 h
Streptococcus pneumoniae [3] = test: Antibacterial activity against Streptococcus pneumoniae 6 expressing constitutive ermB methylase and mefA after 20 hrs by agar dilution method; conditions: Streptococcus pneumoniae, 6, 20 h
Streptococcus pneumoniae [4] = test: Antibacterial activity against Streptococcus pneumoniae 7 expressing constitutive ermB methylase after 20 hrs by agar dilution method; conditions: Streptococcus pneumoniae, 7, 20 h
Streptococcus pneumoniae [5] = test: Antibacterial activity against Streptococcus pneumoniae 8 expressing inducible ermB methylase after 20 hrs by agar dilution method; conditions: Streptococcus pneumoniae, 8, 20 h
Streptococcus pneumoniae [6] = test: Antibacterial activity against Streptococcus pneumoniae 9 expressing inducible ermB methylase after 20 hrs by agar dilution method; conditions: Streptococcus pneumoniae, 9, 20 h
Streptococcus pneumoniae [7] = test: Antibacterial activity against Streptococcus pneumoniae 10 expressing mefA efflux pump after 20 hrs by agar dilution method; conditions: Streptococcus pneumoniae, 10, 20 h
Streptococcus pneumoniae [8] = test: Antibacterial activity against Streptococcus pneumoniae 11 expressing mefA efflux pump after 20 hrs by agar dilution method; conditions: Streptococcus pneumoniae, 11, 20 h
Streptococcus pyogenes [9] = test: Antibacterial activity against Streptococcus pyogenes Cook after 20 hrs by agar dilution method
Streptococcus pyogenes [10] = test: Antibacterial activity against Streptococcus pyogenes 2 expressing constitutive ermB methylase after 20 hrs by agar dilution method; conditions: Streptococcus pyogenes, 2, 20 h
Streptococcus pyogenes [11] = test: Antibacterial activity against Streptococcus pyogenes 3 expressing mefA efflux pump after 20 hrs by agar dilution method; conditions: Streptococcus pyogenes, 3, 20 h
Haemophilus influenzae [12] = test: Antibacterial activity against Haemophilus influenzae 1 after 20 hrs by agar dilution method; conditions: Haemophilus influenzae, 1, 20 h
Haemophilus influenzae [13] = test: Antibacterial activity against Haemophilus influenzae 2 after 20 hrs by agar dilution method; conditions: Haemophilus influenzae, 2, 20 h
Haemophilus influenzae [14] = test: Antibacterial activity against Haemophilus influenzae 3 after 20 hrs by agar dilution method; conditions: Haemophilus influenzae, 3, 20 h

MIC (Staphylococcus aureus) [µg/mL]	MIC (Streptococcus pneumoniae [1]) [µg/mL]	MIC (Streptococcus pneumoniae [2]) [µg/mL]	MIC (Streptococcus pneumoniae [3]) [µg/mL]	MIC (Streptococcus pneumoniae [4]) [µg/mL]	MIC (Streptococcus pneumoniae [5]) [µg/mL]	MIC (Streptococcus pneumoniae [6]) [µg/mL]	MIC (Streptococcus pneumoniae [7]) [µg/mL]	MIC (Streptococcus pneumoniae [8]) [µg/mL]	MIC (Streptococcus pyogenes [9]) [µg/mL]	MIC (Streptococcus pyogenes [10]) [µg/mL]	MIC (Streptococcus pyogenes [11]) [µg/mL]	MIC (Haemophilus influenzae [12]) [µg/mL]	MIC (Haemophilus influenzae [13]) [µg/mL]	MIC (Haemophilus influenzae [14]) [µg/mL]	Structure (SMILES)
0.25 (≈ 0.236 µM)	0.03 (≈ 0.0284 µM)	32 (≈ 30.3 µM)	> 32	> 32	0.25 (≈ 0.236 µM)	0.5 (≈ 0.473 µM)	0.06 (≈ 0.0567 µM)	0.06 (≈ 0.0567 µM)	0.06 (≈ 0.0567 µM)	> 32	0.06 (≈ 0.0567 µM)	8 (≈ 7.57 µM)	32 (≈ 30.3 µM)	32 (≈ 30.3 µM)	CCC(=O)O[C@@H]1CC(=O)O[C@@H](C/C=C/c2cnc3ccccc3c2)CCCN(C)C[C@H](O)[C@H](C)C[C@H](CC=O)[C@H](O[C@@H]2O[C@H](C)[C@@H](O[C@H]3C[C@@](C)(OC(=O)CC)[C@@H](OC(=O)N(C)C)[C@H](C)O3)[C@H](N(C)C)[C@H]2O)[C@H]1OC
0.5 (≈ 0.467 µM)	0.03 (≈ 0.028 µM)	16 (≈ 14.9 µM)	32 (≈ 29.9 µM)	16 (≈ 14.9 µM)	0.25 (≈ 0.233 µM)	0.25 (≈ 0.233 µM)	0.06 (≈ 0.056 µM)	0.06 (≈ 0.056 µM)	0.13 (≈ 0.121 µM)	64 (≈ 59.7 µM)	0.25 (≈ 0.233 µM)	8 (≈ 7.47 µM)	32 (≈ 29.9 µM)	32 (≈ 29.9 µM)	CCCNC(=O)O[C@H]1[C@H](C)O[C@@H](O[C@H]2[C@H](N(C)C)[C@@H](O)[C@H](O[C@H]3[C@@H](CC=O)C[C@@H](C)[C@@H](O)CN(C)CCC[C@H](C/C=C/c4cnc5ccccc5c4)OC(=O)C[C@@H](OC(=O)CC)[C@@H]3OC)O[C@@H]2C)C[C@@]1(C)OC(=O)CC

The remaining lines, values behind:

Structure (SMILES)	MIC (Staphylococcus aureus) [µg/mL]	MIC (Streptococcus pneumoniae [1]) [µg/mL]	MIC (Streptococcus pneumoniae [2]) [µg/mL]	MIC (Streptococcus pneumoniae [3]) [µg/mL]	MIC (Streptococcus pneumoniae [4]) [µg/mL]	MIC (Streptococcus pneumoniae [5]) [µg/mL]	MIC (Streptococcus pneumoniae [6]) [µg/mL]	MIC (Streptococcus pneumoniae [7]) [µg/mL]	MIC (Streptococcus pneumoniae [8]) [µg/mL]	MIC (Streptococcus pyogenes [9]) [µg/mL]	MIC (Streptococcus pyogenes [10]) [µg/mL]	MIC (Streptococcus pyogenes [11]) [µg/mL]	MIC (Haemophilus influenzae [12]) [µg/mL]	MIC (Haemophilus influenzae [13]) [µg/mL]	MIC (Haemophilus influenzae [14]) [µg/mL]
CCNC(=O)O[C@H]1[C@H](C)O[C@@H](O[C@H]2[C@H](N(C)C)[C@@H](O)[C@H](O[C@H]3[C@@H](CC=O)C[C@@H](C)[C@@H](O)CN(C)CCC[C@H](C/C=C/c4cnc5ccccc5c4)OC(=O)C[C@@H](O)[C@@H]3OC)O[C@@H]2C)C[C@@]1(C)OC(=O)CC	0.25 (≈ 0.25 µM)	< 0.008	4 (≈ 4 µM)	4 (≈ 4 µM)	4 (≈ 4 µM)	0.06 (≈ 0.0599 µM)	0.06 (≈ 0.0599 µM)	0.015 (≈ 0.015 µM)	0.015 (≈ 0.015 µM)	0.06 (≈ 0.0599 µM)	8 (≈ 7.99 µM)	0.06 (≈ 0.0599 µM)	2 (≈ 2 µM)	4 (≈ 4 µM)	4 (≈ 4 µM)
CCNC(=O)O[C@H]1[C@H](C)O[C@@H](O[C@H]2[C@H](N(C)C)[C@@H](O)[C@H](O[C@H]3[C@@H](CC=O)C[C@@H](C)[C@@H](O)CN(C)CCC[C@H](C/C=C/c4ccc(N)nc4)OC(=O)C[C@@H](O)[C@@H]3OC)O[C@@H]2C)C[C@@]1(C)OC(=O)CC	2 (≈ 2.07 µM)	0.03 (≈ 0.0311 µM)	4 (≈ 4.14 µM)	4 (≈ 4.14 µM)	4 (≈ 4.14 µM)	0.25 (≈ 0.259 µM)	0.25 (≈ 0.259 µM)	0.06 (≈ 0.0621 µM)	0.13 (≈ 0.135 µM)	0.13 (≈ 0.135 µM)	16 (≈ 16.6 µM)	0.13 (≈ 0.135 µM)	4 (≈ 4.14 µM)	8 (≈ 8.28 µM)	16 (≈ 16.6 µM)
CCNC(=O)O[C@H]1[C@H](C)O[C@@H](O[C@H]2[C@H](N(C)C)[C@@H](O)[C@H](O[C@H]3[C@@H](CC=O)C[C@@H](C)[C@@H](O)CN(C)CCC[C@H](C/C=C/c4ccnc5ccccc45)OC(=O)C[C@@H](OC(=O)CC)[C@@H]3OC)O[C@@H]2C)C[C@@]1(C)OC(=O)CC	0.5 (≈ 0.473 µM)	0.015 (≈ 0.0142 µM)	64 (≈ 60.5 µM)	64 (≈ 60.5 µM)	64 (≈ 60.5 µM)	0.5 (≈ 0.473 µM)	0.5 (≈ 0.473 µM)	0.03 (≈ 0.0284 µM)	0.03 (≈ 0.0284 µM)	0.06 (≈ 0.0567 µM)	> 128	0.25 (≈ 0.236 µM)	8 (≈ 7.57 µM)	32 (≈ 30.3 µM)	16 (≈ 15.1 µM)
CCNC(=O)O[C@H]1[C@H](C)O[C@@H](O[C@H]2[C@H](N(C)C)[C@@H](O)[C@H](O[C@H]3[C@@H](CC=O)C[C@@H](C)[C@@H](O)CN(C)CCC[C@H](C/C=C/c4cnc(N)c5ccccc45)OC(=O)C[C@@H](O)[C@@H]3OC)O[C@@H]2C)C[C@@]1(C)OC(=O)CC	0.5 (≈ 0.492 µM)	0.015 (≈ 0.0148 µM)	1 (≈ 0.984 µM)	1 (≈ 0.984 µM)	1 (≈ 0.984 µM)	0.06 (≈ 0.059 µM)	0.03 (≈ 0.0295 µM)	0.015 (≈ 0.0148 µM)	0.015 (≈ 0.0148 µM)	0.03 (≈ 0.0295 µM)	2 (≈ 1.97 µM)	0.03 (≈ 0.0295 µM)	2 (≈ 1.97 µM)	4 (≈ 3.94 µM)	8 (≈ 7.87 µM)
CC[C@H]1OC(=O)[C@H](C)[C@@H](O[C@H]2C[C@@](C)(OC)[C@@H](O)[C@H](C)O2)[C@H](C)[C@@H](O[C@@H]2O[C@H](C)C[C@H](N(C)C)[C@H]2O)[C@](C)(OC)C[C@@H](C)C(=O)[C@H](C)[C@@H](O)[C@]1(C)O [CLARITHROMYCIN]	0.13 (≈ 0.174 µM)	0.03 (≈ 0.0401 µM)	> 128	> 128	> 128	> 128	> 128	1 (≈ 1.34 µM)	1 (≈ 1.34 µM)	0.03 (≈ 0.0401 µM)	> 128	8 (≈ 10.7 µM)	2 (≈ 2.67 µM)	8 (≈ 10.7 µM)	8 (≈ 10.7 µM)
